From US20160030391A1, “METHODS AND COMPOSITIONS FOR IMPROVING COGNITIVE FUNCTION” (THE JOHNS HOPKINS UNIVERSITY, priority 2013, published 2016)

How the values were obtained:
aged-impaired (AI) rats = assay: eight-arm Radial Arm Maze task, one-hour delay, aged-impaired rats; format: in vivo, rat; conditions: for average no. of errors±SEM: one-hour delay; for effective in reducing the number of errors by AI rats in the radial arm maze: levetiracetam on its own
Experimental: The effects of levetiracetam on the spatial memory retention of aged-impaired (AI) rats were assessed in a Radial Arm Maze (RAM) behavioral task using vehicle control and five different dosage levels of levetiracetam (1.25 mg/kg/day, 2.5 mg/kg/day, 5 mg/kg/day, 10 mg/kg/day and 20 mg/kg/day). RAM behavioral tasks were preformed on ten AI rats. All six treatment conditions were tested on all ten rats, as described above for the MWM test. The RAM apparatus used consisted of eight equidistantly-spaced arms. An elevated maze arm (7 cm width x 75 cm length) projected from each facet of an octagonal center platform (30 cm diameter, 51.5 cm height). Clear side walls on the arms were 10 cm high and were angled at 65° to form a trough. A food well (4 cm diameter, 2 cm deep) was located at the distal end of each arm. Froot Loops™ (Kellogg Company) were used as rewards. Blocks constructed of Plexiglas™ (30 cm height x 12 cm width) could be positioned to prevent entry to any arm. Numerous extra maze cues surrounding the apparatus were also provided. The AI rats were initially subjected to a pre-training test (Chappell et al. Neuropharmacology 37: 481-487, 1998). The pre-training test consisted of a habituation phase (4 days), a training phase on the standard win-shift task (18 days) and another training phase (14 days) in which a brief delay was imposed between presentation of a subset of arms designated by the experimenter (e.g., 5 arms available and 3 arms blocked) and completion of the eight-arm win-shift task (i.e., with all eight arms available). In the habituation phase, rats were familiarized to the maze for an 8-minute session on four consecutive days. In each of these sessions food rewards were scattered on the RAM, initially on the center platform and arms and then progressively confined to the arms. After this habituation phase, a standard training protocol was used, in which a food pellet was located at the end of each arm. Rats received one trial each day for 18 days. Each daily trial terminated when all eight food pellets had been obtained or when either 16 choices were made or 15 minutes had elapsed. After completion of this training phase, a second training phase was carried out in which the memory demand was increased by imposing a brief delay during the trial. At the beginning of each trial, three arms of the eight-arm maze were blocked. Rats were allowed to obtain food on the five arms to which access was permitted during this initial ‘information phase’ of the trial. Rats were then removed from the maze for 60 seconds, during which time the barriers on the maze were removed, thus allowing access to all eight arms. Rats were then placed back onto the center platform and allowed to obtain the remaining food rewards during this ‘retention test’ phase of the trial. The identity and configuration of the blocked arms varied across trials. The number of “errors” the AI rats made during the retention test phase was tracked. An error occurred in the trial if the rats entered an arm from which food had already been retrieved in the pre-delay component of the trial, or if it re-visited an arm in the post-delay session that had already been visited. After completion of the pre-training test, rats were subjected to trials with more extended delay intervals, i.e., a one-hour delay, between the information phase (presentation with some blocked arms) and the retention test (presentation of all arms). During the delay interval, rats remained off to the side of the maze in the testing room, on carts in their individual home cages. AI rats were pretreated 30-40 minutes before daily trials with a one-time shot of the following six conditions: 1) vehicle control (0.9% saline solution); 2) levetiracetam (1.25 mg/kg/day); 3) levetiracetam (2.5 mg/kg/day); 4) levetiracetam (5 mg/kg/day); 5) levetiracetam (10 mg/kg/day); 6) levetiracetam (20 mg/kg/day); through intraperitoneal (i.p.) injection. Injections were given every other day with intervening washout days. […]

aMCI subjects = assay: Verbal Paired Associates Test - Delayed Recall; format: in vivo, human; conditions: levetiracetam 125 mg twice a day for two weeks
Source text: Breaks are provided to the subject as needed.

Question: CC[C@@H](C(N)=O)N1CCCC1=O [levetiracetam, (2S)-2-(2-oxopyrrolidin-1-yl)butanamide] was tested. Which “effective doses of levetiracetam used in the animal model” value (aged-impaired (AI) rats; given acutely, AI rats) did it give?
Answer: 5 to 10 mg/kg

Question: And the “average no. of errors±SEM” value (aged-impaired (AI) rats; levetiracetam 5 mg/kg/day i.p.)?
Answer: 0.75±0.32

Question: What about the “average no. of errors±SEM” value (aged-impaired (AI) rats; levetiracetam 10 mg/kg/day i.p.) of the same compound?
Answer: 0.80±0.27

Question: And the “performance of AI rats in the radial maze task” value (aged-impaired (AI) rats; levetiracetam 20 mg/kg)?
Answer: fails to improve the performance

Question: What about the “effective in reducing the number of errors by AI rats in the radial arm maze” value (aged-impaired (AI) rats; 1.25 mg/kg) of the same compound?
Answer: not

Question: What about the “effective in reducing the number of errors by AI rats in the radial arm maze” value (aged-impaired (AI) rats; 2.5 mg/kg) of the same compound?
Answer: not

Question: What about the “effective in reducing the number of errors by AI rats in the radial arm maze” value (aged-impaired (AI) rats; 5-10 mg/kg) of the same compound?
Answer: effective

Question: And the “performance in Verbal Paired Associates Test—Delayed Recall” value (aMCI subjects)?
Answer: fail to rescue performance
